Results as given in publication PMC9767854, “Discovery and mechanism studies of a novel ATG4B inhibitor Ebselen by drug repurposing and its anti-colorectal cancer effects in mice” (Cell & Bioscience, 2022).
pIC50: −log10 of the molar value.

Experiments:
HCT116 cells = experiment: Long-lived protein degradation assay; format: cell-based; conditions: 10 μM Ebselen, 2 μM Torin 1, 12 h
Method: Long-lived protein degradation assay was performed referring to the reported protocol. In brief, HCT116 cells were seeded in 6-well plates and cultured overnight, and then incubated with L-methionine-free DMEM (Thermo Fisher Scientific, 21,013,024) supplemented with 10% dialyzed FBS (Biological Industries, 2,148,391) for 30 min at 37℃ for depleting the methionine reserve. Subsequently, the cells were incubated with medium containing 50 μM AHA (MCE, HY-140346A) for 18 h to label AHA on proteins. After 2 h incubation with 10 × L-methionine to chase out the short-lived AHA-labeled proteins, cells were treated with compounds as indicated in regular medium for 12 h. Then the cells were harvested, fixed and permeabilized sequentially until they were incubated in the click reaction master mix (50 μM TAMRA alkyne [AAT Bioquest, AAT-487], 1 mM TCEP [MCE, HY-W011500], 100 μM TBTA [GLPBIO, GC45003], 1 mM CuSO4 [Sangon Biotech, C3008] in PBS) in the dark for 2 h. Finally, cells were washed and suspended in 500 μl PBS and analyzed by flow cytometry (BECKMAN, CytoFLEX S).

[1] = molecular target: T1, Recombinant protein ATG4A (Homo sapiens, UniProt Q8WYN0); experiment: FRET-based assay for ATG4A activity; format: biochemical; conditions: FRET-based enzymatic cleavage
T1 construct: 6xHis; made in house; host or cells: E. coli BL21(DE3)
T1 sequence (Q8WYN0 whole entry): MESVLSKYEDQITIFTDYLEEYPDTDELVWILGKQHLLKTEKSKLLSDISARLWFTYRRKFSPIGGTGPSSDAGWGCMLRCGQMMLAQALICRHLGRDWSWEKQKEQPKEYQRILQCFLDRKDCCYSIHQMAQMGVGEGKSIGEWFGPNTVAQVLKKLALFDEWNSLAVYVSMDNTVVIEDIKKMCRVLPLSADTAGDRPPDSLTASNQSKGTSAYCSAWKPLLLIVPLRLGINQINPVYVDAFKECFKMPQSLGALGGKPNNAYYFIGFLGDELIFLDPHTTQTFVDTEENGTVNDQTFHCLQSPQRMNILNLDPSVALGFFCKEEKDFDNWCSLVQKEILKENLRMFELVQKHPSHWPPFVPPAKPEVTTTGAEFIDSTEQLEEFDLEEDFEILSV
Method: FRET-based assay for ATG4B or ATG4A activity was operated as previously described. Briefly, Recombinant protein ATG4B (0.75 μg/ml) or ATG4A (5 μg/ml) was incubated with compounds in reaction buffer (150 mM NaCl, 20 mM Tris–HCl, pH 8.0, 0.1% CHAPS, 1 mM EDTA) at 37 °C. After 30 min, substrate FRET-GATE-16 (50 μg/ml) was added to a final volume of 50 μl. The reaction was recorded via relative fluorescence intensity ratio of 527 nm/477 nm (RFU). The final inhibition rate of the compound for ATG4 was calculated as: (RFUcompound-RFUNC)/(RFUCON-RFUNC) × 100%; respectively, NC as negative control without inhibitor, CON as control without enzymes. For ATG4 activity determination in cells and tissues, cells or separated tumor samples were homogenized in a native lysis buffer (150 mM NaCl, 20 mM Tris–HCl, pH 7.6, 1% TritonX-100, 1 mM EDTA) without protease inhibitors. Then 5 μg total proteins from each sample was added into FRET assay system after clean supernatant proteins were separated. The reaction was recorded via relative fluorescence intensity ratio of 527 nm/477 nm. Finally, the inhibition rates of ATG4B were calculated with the vehicle or CM group as the negative control (ATG4 activity defined as 100%).

ATG4B = molecular target: T2, ATG4B (Homo sapiens, UniProt Q9Y4P1); experiment: ATG4B oligomerization by non-reducing electrophoresis; format: biochemical; conditions: ATG4B 5 μM; Ebselen 5, 25, 50 μM or FMK-9a 50 μM; 0.5, 1, 3 h
T2 construct: 6xHis; made in house; host or cells: E. coli BL21(DE3)
T2 sequence (Q9Y4P1 1-393): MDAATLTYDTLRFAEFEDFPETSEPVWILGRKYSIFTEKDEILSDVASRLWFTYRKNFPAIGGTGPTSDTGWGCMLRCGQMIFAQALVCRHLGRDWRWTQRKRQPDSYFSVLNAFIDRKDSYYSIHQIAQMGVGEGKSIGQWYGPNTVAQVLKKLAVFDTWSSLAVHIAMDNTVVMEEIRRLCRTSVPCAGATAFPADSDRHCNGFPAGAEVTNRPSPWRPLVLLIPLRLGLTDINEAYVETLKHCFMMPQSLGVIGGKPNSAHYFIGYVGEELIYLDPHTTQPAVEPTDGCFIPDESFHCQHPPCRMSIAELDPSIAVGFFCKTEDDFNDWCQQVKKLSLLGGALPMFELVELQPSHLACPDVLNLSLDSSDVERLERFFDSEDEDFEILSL
From the text: The aggregates formed could be reversibly regulated by a reducing agent, because an assay to add dithiothreitol (DTT) into the reaction was operated. […] Furthermore, we also evaluated the redox properties of analogues on ATG4B.

WT HCT116 = experiment: Cell viability by CCK-8 assay, WT HCT116; format: cell-based
Method: WT/ATG4B KO HCT116, WT/ATG4B KO SW620 and WT/ATG4B KO RKO cells were seeded in 96-well plate at 1000–1500 cells per well for cell viability assay, and seed in 6-well plate at 1 × 10^5 cells per well for cell number counting. After 12 h, the indicated drugs were added to the medium and cultured for another 96 h. Total viable cell numbers were counted by a cell counter (BioRAD), and cell viability was determined by cell-count-8 assay kit (CCK-8, Bimake, B34304) according to the manufacturer’s protocol.

Caspase 2 = molecular target: T3, Caspase 2 (Homo sapiens, UniProt P42575); experiment: Caspase activity assay kit, CASP2; format: biochemical; conditions: 10 μM
T3 construct: Beyotime (assay kit only) C1107
T3 sequence (P42575 170-325 limits assumed, species assumed): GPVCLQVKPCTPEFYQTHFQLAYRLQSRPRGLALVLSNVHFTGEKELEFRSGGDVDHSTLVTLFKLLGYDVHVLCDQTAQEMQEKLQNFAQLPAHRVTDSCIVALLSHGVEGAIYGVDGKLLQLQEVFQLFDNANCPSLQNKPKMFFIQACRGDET
T3 sequence (P42575 348-452 limits assumed, species assumed): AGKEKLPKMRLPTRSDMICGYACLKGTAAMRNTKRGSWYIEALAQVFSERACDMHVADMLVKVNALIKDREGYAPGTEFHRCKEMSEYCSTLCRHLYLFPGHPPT
Method: (§1) The enzyme activity of Caspase 1, Caspase 2, Caspase 3, Caspase 4, Caspase 6, Caspase 8 and Caspase 9 were determined via the activity assay kits (C1101, C1107, C1115, C1121, C1135, C1151 and C1157) from Beyotime (Shanghai, China). Then the experimental procedures were performed according to the manufacturer’s protocols.

Caspase 3 = molecular target: T4, Caspase 3 (Homo sapiens, UniProt P42574); experiment: Caspase activity assay kit, CASP3; format: biochemical; conditions: 10 μM
T4 construct: Beyotime (assay kit only) C1115
T4 sequence (P42574 29-175 limits assumed, species assumed): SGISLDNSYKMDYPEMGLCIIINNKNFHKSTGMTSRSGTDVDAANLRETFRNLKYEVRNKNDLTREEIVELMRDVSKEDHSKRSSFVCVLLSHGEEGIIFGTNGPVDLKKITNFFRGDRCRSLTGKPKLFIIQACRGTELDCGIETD
T4 sequence (P42574 176-277 limits assumed, species assumed): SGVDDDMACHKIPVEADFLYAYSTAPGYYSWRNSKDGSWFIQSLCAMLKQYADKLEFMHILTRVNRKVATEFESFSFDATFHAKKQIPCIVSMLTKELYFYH
Method: as §1

**Q.** Which results are given for `O=c1c2ccccc2[se]n1-c1ccccc1` [Ebselen]?
**A.** autophagic long-lived protein degradation induced by Torin 1 (HCT116 cells): significantly inhibited; inhibition of ATG4A compared to ATG4B [1]: weaker inhibition; ATG4B oligomerization (ATG4B): oligomerization occurred; inhibition of the viability of CRC cell lines (WT HCT116; Fig. 6F): ~ 50%; pIC50 (WT HCT116; Homo sapiens, HCT-116, CCK-8, 96 h): 4.72; effect on CASP2 activity (Caspase 2): certain inhibition; effect on CASP3 activity (Caspase 3): certain inhibition
